Results: ChEMBL document CHEMBL4396868, “Discovery of Potent, Selective, and Brain-Penetrant 1 H-Pyrazol-5-yl-1 H-pyrrolo[2,3- b]pyridines as Anaplastic Lymphoma Kinase (ALK) Inhibitors” (J Med Chem, 2019)
The source made the active and inactive calls. The rule behind the calls is not given here.

Assays:
MDR1 (ABCB1, P-gp) = MDR1 (ABCB1, P-gp) (Homo sapiens, UniProt P08183); assay: Substrate activity at human MDR1 expressed in pig LLC-PK1 cells assessed as efflux ratio of apparent permeability across basolateral to apical over apical to basolateral side at 10 uM after 2 hrs by LC/MS/MS analysis; type: ADME, cell-based
Mus musculus [1] = assay: In-vivo inhibition of ALK in ICR mouse prefrontal cortex assessed as reduction in phosphorylated ALK level at 100 mg/kg, ip after 1 hr by Western blot analysis; type: functional, organism-based
[2] = Brain to plasma partition coefficient, Kp of the compound in Jcl-ICR mouse at 100 mg/kg, ip measured at 1 hr by LC/MS/MS analysis; type: ADME, organism-based
[3] = biological target: ALK tyrosine kinase receptor (Homo sapiens, UniProt Q9UM73); type: cell-based, HEK293
Description: Inhibition of recombinant human ALK expressed in HEK293 cells assessed as reduction in ALK autophosphorylation at Tyr1604 residue incubated for 60 mins by sandwich ELISA

[4] = Fraction unbound in ICR mouse plasma at 1 umol/L measured for 20 hrs by equilibrium dialysis based LC-MS/MS analysis; type: ADME, cell-free; conditions: 1 µM
Mus musculus [5] = assay: In-vivo inhibition of ALK in ip dosed ICR mouse hippocampus assessed as reduction in phosphorylated ALK level after 1 hr by Western blot analysis; type: functional, organism-based
[6] = biological target: Rho-associated protein kinase 1 (Homo sapiens) (UniProt Q13464); assay: Inhibition of ROCK1 (unknown origin) at 100 nM by [gamma-33P]ATP-based radiometric or Alphascreen assay relative to control
[7] = biological target: Cyclin-dependent kinase 2 (Homo sapiens) (UniProt P24941); assay: Inhibition of CDK2 (unknown origin) at 100 nM by [gamma-33P]ATP-based radiometric or Alphascreen assay relative to control
[8] = biological target: Aurora kinase B (Homo sapiens) (UniProt Q96GD4); assay: (§1) Inhibition of N-terminal His6-tagged AuroraB (unknown origin) expressed in baculovirus expression system at 100 nM using aurora peptide as substrate preincubated for 5 mins followed by [gamma-33P]ATP addition and measured after 60 mins by topcount scintillation counting method relative to control
[9] = biological target: Interleukin-1 receptor-associated kinase 4 (Homo sapiens) (UniProt Q9NWZ3); assay: Inhibition of IRAK4 (unknown origin) at 100 nM by [gamma-33P]ATP-based radiometric or Alphascreen assay relative to control
[10] = Unbound brain-to-plasma concentration ratio in Jcl-ICR mouse at 100 mg/kg, ip measured at 1 hr by LC/MS/MS analysis; type: ADME, organism-based; conditions: read-out: K(p,uu,brain)
[11] = Drug level in Jcl-ICR mouse plasma at 100 mg/kg, ip measured at 1 hr by LC/MS/MS analysis; type: ADME, organism-based
Homo sapiens = species on record: Homo sapiens; assay: Selectivity ratio of IC50 for human FAK kinase domain (411 to 686 residues) expressed in baculovirus expression system to IC50 for human ALK kinase domain (1058 to 1620 residues) expressed in baculovirus expression system
[12] = Brain to plasma partition coefficient, Kp of the compound in Jcl-ICR mouse at 100 mg/kg, ip measured at 0.5 hrs by LC/MS/MS analysis; type: ADME, organism-based
[13] = biological target: Mitogen-activated protein kinase 14 (Homo sapiens) (UniProt Q16539); assay: as §1, with “FLAG-tagged p38alpha” for “His6-tagged AuroraB”, “myelin basic protein” for “aurora peptide”
[14] = Brain to plasma partition coefficient, Kp of the compound in Jcl-ICR mouse at 100 mg/kg, ip measured at 2 hrs by LC/MS/MS analysis; type: ADME, organism-based
[15] = biological target: Glycogen synthase kinase-3 beta (Homo sapiens) (UniProt P49841); assay: Inhibition of N-terminal FLAG-tagged GSK3beta (unknown origin) expressed in baculovirus expression system at 100 nM using pGS peptide as substrate preincubated for 5 mins followed by [gamma-33P]ATP addition and measured after 30 mins by topcount scintillation counting method relative to control
[16] = biological target: High affinity nerve growth factor receptor (Homo sapiens, UniProt P04629); assay: Inhibition of N-terminal GST-tagged human TrkA kinase domain (436 to 790 residues) expressed in baculovirus expression system using biotin-poly-GT as substrate pre-incubated for 5 mins followed by ATP addition and measured after 60 mins by alpha screen assay
Focal adhesion kinase 1 = Focal adhesion kinase 1 (Homo sapiens, UniProt Q05397); assay: Inhibition of human FAK kinase domain (411 to 686 residues) expressed in baculovirus expression system using biotin-poly-GT as substrate pre-incubated for 10 mins followed by ATP addition and measured after 60 mins by HTRF method
[17] = Unbound brain-to-plasma concentration ratio in Jcl-ICR mouse at 100 mg/kg, ip measured at 0.5 hrs by LC/MS/MS analysis; type: ADME, organism-based; conditions: read-out: K(p,uu,brain)
[18] = Drug level in Jcl-ICR mouse plasma at 100 mg/kg, ip measured at 0.5 hrs by LC/MS/MS analysis; type: ADME, organism-based
[19] = biological target: Proto-oncogene tyrosine-protein kinase Src (Homo sapiens) (UniProt P12931); assay: Inhibition of recombinant human full-length N-terminal His6-tagged SRC expressed in Sf21 insect cells at 100 nM preincubated for 5 mins followed by ATP addition and measured after 10 mins by alphascreen assay relative to control
[20] = Drug level in Jcl-ICR mouse brain at 100 mg/kg, ip measured at 1 hr by LC/MS/MS analysis; type: ADME, organism-based; conditions: read-out: Drug uptake
[21] = biological target: Protein kinase C theta type (Homo sapiens) (UniProt Q04759); assay: Inhibition of N-terminal FLAG-tagged PKCtheta (unknown origin) expressed in baculovirus expression system at 100 nM using pGS peptide as substrate preincubated for 5 mins followed by [gamma-33P]ATP addition and measured after 30 mins by topcount scintillation counting method relative to control
[22] = biological target: MAP kinase-activated protein kinase 2 (Homo sapiens) (UniProt P49137); assay: Inhibition of MAPKAPK2 (unknown origin) at 100 nM by [gamma-33P]ATP-based radiometric or Alphascreen assay relative to control
[23] = biological target: Tyrosine-protein kinase JAK1 (Homo sapiens) (UniProt P23458); assay: Inhibition of JAK1 (unknown origin) at 100 nM by [gamma-33P]ATP-based radiometric or Alphascreen assay relative to control
[24] = biological target: Ephrin type-A receptor 5 (Homo sapiens) (UniProt P54756); assay: Inhibition of EPHA5 (unknown origin) at 100 nM by [gamma-33P]ATP-based radiometric or Alphascreen assay relative to control
[25] = biological target: Cell division cycle 7-related protein kinase (Homo sapiens) (UniProt O00311); assay: Inhibition of CDC7 (unknown origin) at 100 nM by [gamma-33P]ATP-based radiometric or Alphascreen assay relative to control
[26] = biological target: Mitogen-activated protein kinase kinase kinase 5 (Homo sapiens) (UniProt Q99683); assay: Inhibition of N-terminal FLAG-tagged ASK1 (unknown origin) expressed in baculovirus expression system at 100 nM using myelin basic protein as substrate preincubated for 5 mins followed by [gamma-33P]ATP addition and measured after 60 mins by topcount scintillation counting method relative to control
Chain of Mitogen-activated protein kinase kinase kinase 5 (Homo sapiens) (Q99683 whole entry): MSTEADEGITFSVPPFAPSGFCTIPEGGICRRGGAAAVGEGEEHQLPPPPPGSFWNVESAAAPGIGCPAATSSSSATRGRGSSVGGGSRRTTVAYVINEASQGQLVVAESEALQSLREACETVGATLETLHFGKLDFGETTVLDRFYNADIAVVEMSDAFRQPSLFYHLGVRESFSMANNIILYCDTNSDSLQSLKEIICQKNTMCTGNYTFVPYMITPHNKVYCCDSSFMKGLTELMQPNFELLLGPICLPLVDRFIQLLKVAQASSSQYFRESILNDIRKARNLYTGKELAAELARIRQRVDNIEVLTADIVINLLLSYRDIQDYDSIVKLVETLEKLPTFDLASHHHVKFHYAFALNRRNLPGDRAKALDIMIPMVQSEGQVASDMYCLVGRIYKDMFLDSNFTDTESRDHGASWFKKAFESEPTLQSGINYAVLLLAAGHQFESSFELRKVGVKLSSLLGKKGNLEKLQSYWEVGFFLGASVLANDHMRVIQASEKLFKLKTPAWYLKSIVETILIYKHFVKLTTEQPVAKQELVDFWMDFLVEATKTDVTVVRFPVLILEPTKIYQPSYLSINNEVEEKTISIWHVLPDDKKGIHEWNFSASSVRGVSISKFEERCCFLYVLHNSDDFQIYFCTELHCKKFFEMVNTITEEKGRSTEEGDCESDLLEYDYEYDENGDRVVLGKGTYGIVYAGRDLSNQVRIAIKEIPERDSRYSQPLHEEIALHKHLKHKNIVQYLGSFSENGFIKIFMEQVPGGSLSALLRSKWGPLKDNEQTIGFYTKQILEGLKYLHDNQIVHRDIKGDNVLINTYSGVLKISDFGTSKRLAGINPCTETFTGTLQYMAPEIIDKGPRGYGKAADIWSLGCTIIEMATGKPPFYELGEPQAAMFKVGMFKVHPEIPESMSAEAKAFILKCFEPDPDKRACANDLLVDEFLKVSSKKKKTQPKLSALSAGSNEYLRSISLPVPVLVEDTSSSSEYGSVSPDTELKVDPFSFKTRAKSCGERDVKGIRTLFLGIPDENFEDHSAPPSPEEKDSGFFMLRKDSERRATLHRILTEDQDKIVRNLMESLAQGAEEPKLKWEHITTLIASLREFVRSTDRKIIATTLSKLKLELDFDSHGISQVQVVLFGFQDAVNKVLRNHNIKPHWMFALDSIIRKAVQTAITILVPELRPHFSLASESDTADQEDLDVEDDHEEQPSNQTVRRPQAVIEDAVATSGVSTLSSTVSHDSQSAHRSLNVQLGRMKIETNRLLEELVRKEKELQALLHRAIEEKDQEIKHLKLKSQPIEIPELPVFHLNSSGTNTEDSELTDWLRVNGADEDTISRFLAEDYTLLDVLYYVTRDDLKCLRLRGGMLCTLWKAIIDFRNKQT

Chain of Aurora kinase B (Homo sapiens) (Q96GD4 whole entry): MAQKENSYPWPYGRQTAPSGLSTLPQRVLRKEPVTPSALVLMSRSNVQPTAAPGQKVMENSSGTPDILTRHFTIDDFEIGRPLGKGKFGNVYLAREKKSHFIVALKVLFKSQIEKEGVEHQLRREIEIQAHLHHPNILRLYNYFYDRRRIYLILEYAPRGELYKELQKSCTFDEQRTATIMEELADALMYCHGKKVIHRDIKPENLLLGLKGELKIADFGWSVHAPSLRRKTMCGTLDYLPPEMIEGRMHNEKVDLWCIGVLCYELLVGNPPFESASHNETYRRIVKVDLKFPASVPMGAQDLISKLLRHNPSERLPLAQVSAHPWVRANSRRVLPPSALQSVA
Chain of Proto-oncogene tyrosine-protein kinase Src (Homo sapiens) (P12931 2-536 limits assumed): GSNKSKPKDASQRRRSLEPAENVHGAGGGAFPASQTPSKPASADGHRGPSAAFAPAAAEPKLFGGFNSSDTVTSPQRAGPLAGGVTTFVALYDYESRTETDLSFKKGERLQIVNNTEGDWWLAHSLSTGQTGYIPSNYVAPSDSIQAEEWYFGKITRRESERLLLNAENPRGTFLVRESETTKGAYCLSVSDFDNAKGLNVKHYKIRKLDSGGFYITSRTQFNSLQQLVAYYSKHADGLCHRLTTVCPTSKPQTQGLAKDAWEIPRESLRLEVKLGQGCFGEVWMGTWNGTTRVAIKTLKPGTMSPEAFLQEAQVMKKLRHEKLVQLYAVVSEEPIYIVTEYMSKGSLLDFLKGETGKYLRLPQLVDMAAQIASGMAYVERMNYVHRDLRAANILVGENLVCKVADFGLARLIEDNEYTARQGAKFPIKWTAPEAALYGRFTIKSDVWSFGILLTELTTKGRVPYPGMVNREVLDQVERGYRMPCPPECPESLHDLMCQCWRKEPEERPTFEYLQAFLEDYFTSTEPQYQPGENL
Chain of Interleukin-1 receptor-associated kinase 4 (Homo sapiens) (Q9NWZ3 whole entry): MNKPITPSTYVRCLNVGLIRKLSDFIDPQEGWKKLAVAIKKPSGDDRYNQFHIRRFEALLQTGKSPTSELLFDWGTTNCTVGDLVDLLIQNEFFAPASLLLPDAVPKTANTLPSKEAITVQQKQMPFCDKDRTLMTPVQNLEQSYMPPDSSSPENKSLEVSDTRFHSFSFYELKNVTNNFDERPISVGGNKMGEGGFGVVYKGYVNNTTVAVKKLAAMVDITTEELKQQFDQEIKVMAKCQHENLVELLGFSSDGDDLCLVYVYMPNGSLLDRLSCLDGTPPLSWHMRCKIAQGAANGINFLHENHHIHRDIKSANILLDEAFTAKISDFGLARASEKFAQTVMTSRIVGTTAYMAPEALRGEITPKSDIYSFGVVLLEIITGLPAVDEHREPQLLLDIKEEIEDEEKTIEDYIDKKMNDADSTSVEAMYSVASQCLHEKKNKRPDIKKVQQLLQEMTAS
Chain of Ephrin type-A receptor 5 (Homo sapiens) (P54756 whole entry): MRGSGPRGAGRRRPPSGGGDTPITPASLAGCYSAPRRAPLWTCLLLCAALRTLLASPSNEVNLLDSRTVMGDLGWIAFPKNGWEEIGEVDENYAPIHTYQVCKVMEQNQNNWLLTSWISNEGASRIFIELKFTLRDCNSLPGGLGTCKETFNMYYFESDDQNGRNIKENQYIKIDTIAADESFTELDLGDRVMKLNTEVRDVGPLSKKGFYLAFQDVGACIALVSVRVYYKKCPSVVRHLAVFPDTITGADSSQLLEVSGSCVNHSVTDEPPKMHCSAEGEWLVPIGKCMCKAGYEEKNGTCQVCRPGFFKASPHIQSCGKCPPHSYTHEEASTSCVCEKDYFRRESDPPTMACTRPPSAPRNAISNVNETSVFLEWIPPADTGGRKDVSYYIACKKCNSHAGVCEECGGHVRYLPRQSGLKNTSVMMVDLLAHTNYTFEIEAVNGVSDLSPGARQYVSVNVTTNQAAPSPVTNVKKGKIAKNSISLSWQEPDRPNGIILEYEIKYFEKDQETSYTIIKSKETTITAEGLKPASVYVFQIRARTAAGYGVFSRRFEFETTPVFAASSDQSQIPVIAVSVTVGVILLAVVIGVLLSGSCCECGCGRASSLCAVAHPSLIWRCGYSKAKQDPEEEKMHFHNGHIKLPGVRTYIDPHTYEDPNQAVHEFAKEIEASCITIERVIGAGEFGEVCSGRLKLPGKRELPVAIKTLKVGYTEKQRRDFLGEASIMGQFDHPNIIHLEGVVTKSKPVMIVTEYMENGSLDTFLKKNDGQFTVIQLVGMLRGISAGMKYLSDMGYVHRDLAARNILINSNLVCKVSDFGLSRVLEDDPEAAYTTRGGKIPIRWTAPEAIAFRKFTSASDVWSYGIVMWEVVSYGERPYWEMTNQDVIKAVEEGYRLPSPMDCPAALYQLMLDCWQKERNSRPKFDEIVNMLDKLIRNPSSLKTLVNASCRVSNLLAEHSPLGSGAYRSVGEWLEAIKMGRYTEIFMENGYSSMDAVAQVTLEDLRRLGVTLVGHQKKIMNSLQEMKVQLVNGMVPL
Chain of Cell division cycle 7-related protein kinase (Homo sapiens) (O00311 whole entry, looked up): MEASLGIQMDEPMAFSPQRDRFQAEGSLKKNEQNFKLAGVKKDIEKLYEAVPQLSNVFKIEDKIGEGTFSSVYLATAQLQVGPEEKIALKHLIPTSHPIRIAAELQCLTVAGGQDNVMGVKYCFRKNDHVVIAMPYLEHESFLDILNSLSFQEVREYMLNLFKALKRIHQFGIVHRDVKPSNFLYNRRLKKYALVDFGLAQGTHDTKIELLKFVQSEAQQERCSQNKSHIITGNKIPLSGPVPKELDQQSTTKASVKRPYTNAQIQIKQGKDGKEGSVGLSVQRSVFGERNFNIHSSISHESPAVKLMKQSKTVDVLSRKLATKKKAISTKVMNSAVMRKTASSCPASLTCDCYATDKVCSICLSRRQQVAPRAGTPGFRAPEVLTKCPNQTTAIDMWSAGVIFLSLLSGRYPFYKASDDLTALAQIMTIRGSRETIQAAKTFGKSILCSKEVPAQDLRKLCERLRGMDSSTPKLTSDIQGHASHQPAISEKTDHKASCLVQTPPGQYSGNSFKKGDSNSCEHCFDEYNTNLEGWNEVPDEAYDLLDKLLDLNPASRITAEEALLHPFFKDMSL
Chain of MAP kinase-activated protein kinase 2 (Homo sapiens) (P49137 whole entry, looked up): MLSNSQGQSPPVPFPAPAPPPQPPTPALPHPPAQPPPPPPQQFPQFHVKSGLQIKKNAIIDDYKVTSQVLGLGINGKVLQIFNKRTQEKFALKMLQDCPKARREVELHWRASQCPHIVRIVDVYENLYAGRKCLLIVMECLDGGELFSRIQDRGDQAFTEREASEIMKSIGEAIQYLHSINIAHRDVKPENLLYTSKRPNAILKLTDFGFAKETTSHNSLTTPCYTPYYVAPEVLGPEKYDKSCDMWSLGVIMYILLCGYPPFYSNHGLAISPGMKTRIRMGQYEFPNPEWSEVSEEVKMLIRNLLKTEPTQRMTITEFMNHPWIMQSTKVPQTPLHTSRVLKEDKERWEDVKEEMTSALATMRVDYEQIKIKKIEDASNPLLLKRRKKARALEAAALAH

Compound: Cc1cc(-n2cc(C(=O)N3CCO[C@@H](C)C3)c3ccc(O[C@@H](C)c4ccc(F)cn4)nc32)n[nH]1
- efflux ratio at 2 h, 10 µM (MDR1 (ABCB1, P-gp)): 1
- inhibition (Mus musculus [1]): Active
- Kp at 1 h [2]: 1.28
- IC50 [3]: 27 nM
- Fu [4]: 0.08%
- inhibition (Mus musculus [5]): Dose-dependent effect
- inhibition [6]: -5%
- inhibition [7]: 5%
- inhibition [8]: 21%
- inhibition [9]: -7%
- Kp uu at 1 h [10]: 0.27
- concentration at 1 h [11]: 26200 ng/mL
- Ratio IC50 (Homo sapiens): 10
- Kp at 0.5 h [12]: 1.26
- inhibition [13]: -4%
- Kp at 2 h [14]: 0.515
- inhibition [15]: 3%
- IC50 [16]: 2600 nM
- IC50 (Focal adhesion kinase 1): 25 nM
- Kp uu at 0.5 h [17]: 0.27
- concentration at 0.5 h [18]: 26200 ng/mL
- inhibition [19]: -2%
- concentration at 1 h [20]: 33400 ng/mL
- inhibition [21]: 2%
- inhibition [22]: 3%
- inhibition [23]: -8%
- inhibition [24]: -2%
- inhibition [25]: -2%
- inhibition [26]: -1%
